Consider two molecules from patent US5607836A, “Methods of detecting compounds which bind to the P2U receptor” (The Curators of the University of Missouri, priority 1995, dated 1997).

Assay [1] has as its target T1, murine P2U receptor (Mus musculus, UniProt P35383). The assay is described as follows: intracellular phosphatidylinositol 4,5-bisphosphate (PIP2) in K562 stable transfectants. The class given is cell-based. The conditions noted are these: transient. An excerpt: Stable and Transient Transfections. To generate stable transfectants expressing the P2U receptor, K562 cells were transfected by electroporation (F. Toneguzzo et al., Mol. Cell. Biol. 6, 703 (1986)) with the neomycin-resistance plasmid pP2R1. pP2R1 is pRc/CMV containing a ~2.4 kb HindIII-NotI fragment of the P2U receptor cDNA, missing the first 6 nucleotides of the 5' untranslated region of the full length cDNA. control cells were stably transfected with pRc/CMV. Cells were sedimented at 200×g for 5 min at room temperature, rinsed once with phosphate-buffered saline (10 mM NaH2 PO4, pH 7.4, 120 mM NaCl, 5 mM KCl), and resuspended in phosphate-buffered saline at a final concentration of 4×10^7 cells/ml. The cells were chilled on ice for 10 min and then transferred in 0.5 ml aliquots to prechilled electroporation cuvettes. DNA (40 μg of pP2R1 linearized with PvuI) was added to the cell suspension, the cells were subjected to a single electrical pulse (1 kV, 25 μF) and the cuvettes were placed on ice. After 10 min, growth medium was added and the cells were incubated at 37° C. Fresh growth medium supplemented with 0.7 mg/ml G418 was added 48 h […], and the cells were incubated for 2 weeks to select for stable transfectants expressing neomycin resistance. […]

Assay [2] has as its target T2, histidine-tagged P2U receptor (P2HIS) (Mus musculus, UniProt P35383). The experiment in a line: cytoplasmic free calcium in K562 cells stably expressing histidine-tagged P2U receptor (P2HIS). The class given is cell-based, murine. As for the experimental part:
(§1) Cytoplasmic Free Calcium Measurements. Cells were sedimented at 200×g for 5 min at room temperature and washed once with 10 ml of Hepes-bufferedsaline (20 mM Hepes, pH 7.4, 120 mM NaCl, 5 mM KCl, 1 mM MgCl2, and 1 mM CaCl2). Washed cells were suspended in Hepes-buffered saline at 5×10^5 cells/ml, and stored (for up to 4 h) at 37° C. The concentration of cytoplasmic free calcium, [Ca^2+ ]i, was measured by dual-excitation spectrofluorometric analysis of cells loaded with fura-2, a fluorescent probe for calcium.
Construction and Purification of the Histidine-tagged P2U Receptor (P2HIS). To produce P2HIS, 70 pmoles of the primers CGCACCATTGCCTTGGTAC (SEQ ID NO:3)(which contains a BstXI site) and […] (SEQ ID NO:4) (which contains an EcoRV site, stop codon, and the hexahistidine coding sequence) were incubated with 50 ng of pP2R, 20 nmoles of each dNTP, 1X reaction buffer (20 mM Tris-HCl, pH 8.2, 10 mM KCl, 6 mM (NH4)2 SO4, 1.5 mM MgCl2, and 0.1% Triton X-100), and H2 O to bring the reaction mixture to a 100 μl volume. […] The reaction mixture was overlayed with 50 μl of mineral oil and subjected to 30 PCR cycles (95° C. for 1.5 min, 55° C. for 1.5 min, and 72° C. for 2 min). The PCR product, a single 400 bp band, was subcloned into the unique BstXI-EcoRV restriction site of pP2R to generate pP2HIS. […]

Assay [3] concerns P2T receptor of K562 cells. The assay is described as follows: cytoplasmic free calcium (fura-2) in untransfected or vector-transfected K562 cells. The class given is cell-based, human. To be noted: untransfected or vector-transfected K562 cells.
Text: (§2) Stable and Transient Transfections. To generate stable transfectants expressing the P2U receptor, K562 cells were transfected by electroporation (F. Toneguzzo et al., Mol. Cell. Biol. 6, 703 (1986)) with the neomycin-resistance plasmid pP2R1. pP2R1 is pRc/CMV containing a ~2.4 kb HindIII-NotI fragment of the P2U receptor cDNA, missing the first 6 nucleotides of the 5' untranslated region of the full length cDNA. control cells were stably transfected with pRc/CMV. Cells were sedimented at 200×g for 5 min at room temperature, rinsed once with phosphate-buffered saline (10 mM NaH2 PO4, pH 7.4, 120 mM NaCl, 5 mM KCl), and resuspended in phosphate-buffered saline at a final concentration of 4×10^7 cells/ml. The cells were chilled on ice for 10 min and then transferred in 0.5 ml aliquots to prechilled electroporation cuvettes. DNA (40 μg of pP2R1 linearized with PvuI) was added to the cell suspension, the cells were subjected to a single electrical pulse (1 kV, 25 μF) and the cuvettes were placed on ice. After 10 min, growth medium was added and the cells were incubated at 37° C. Fresh growth medium supplemented with 0.7 mg/ml G418 was added 48 h […], and the cells were incubated for 2 weeks to select for stable transfectants expressing neomycin resistance. Clonal cell lines were then isolated by transferring single cells to individual wells of a 96-well culture plate: each well contained 0.2 ml of conditioned growth medium filtered from K562 stock cultures, 0.2 ml of fresh growth medium, and 0.4 mg/ml G418. The clonal cell lines were cultured for three to four weeks in growth medium containing 0.4 mg/ml G418 and assayed for P2U receptor, the results shown are from one representative clonal cell line.
as §1

The target in assay [4] is T1, murine P2U receptor. The assay is described as follows: cytoplasmic free calcium (fura-2) in K562 cells transfected with P2U receptor cDNA. The class given is cell-based. More on the design: missing the first 6 nucleotides of the 5' untranslated region of the full length cDNA; expressed in transfected cells; host or cells: K562 human leukemia cells. The conditions noted are these: for increase in [Ca^2+ ]i: K562 cells stably or transiently transfected with P2U receptor cDNA; for time of return of [Ca^2+ ]i to the basal level / time to maximal [Ca^2+ ]i after nucleotide addition: K562 stable or transient transfectants; for effect of depletion of extracellular Ca^2+ by EGTA on nucleotide-mediated increases in [Ca^2+ ]i: stable transfectants.
Text: as §2
To generate transient transfectants, K562 cells were transfected as above with 40 μg unlinearized plasmid pCCM6×1 or pP2R (Lustig et al., supra 1993). Cells were incubated for 48 h at 37° C. in 100 mm culture dishes containing 12 ml of growth medium and assayed for P2U receptor activity.
as §1

In assay [5] the target is T1, murine P2U receptor. Further details: host or cells: Xenopus oocytes. To be noted: Lustig et al. 1993, cited from earlier work; for EC50: Xenopus oocytes, read-out: EC50 in Xenopus oocytes expressing the P2U receptor; for activation of the cloned murine receptor: background.
Assay [6] relates to 1321N1 human astrocytoma cells (uninfected or LSN-infected). The experiment in a line: intracellular calcium by fura-2 fluorescence in uninfected or LSN-infected 1321N1 control cells. The conditions noted are these: uninfected or LSN-infected controls. It is filed as cell-based. As for the experimental part:
Heteroloqous Expression. A retroviral vector-containing plasmid, pLHP2USN, was constructed by insertion of the cloned CF/T43 cDNA into the EcoRI and XhoI sites of pLXSN (A. Miller and G. Rosman, Biotechniques 7, 980 (1989)). An amphotrophic packaging cell line, PA317, was used to produce the LHP2USN retroviral vector and a control vector containing Neor only (LSN). Clonal human astrocytoma cells 1321N1, UNC strain, generously provided by T. K. Harden (UNC, Chapel Hill, N.C.), were plated at 150,000 cells per 60-mm dish and infected with LHP2USN or LSN (2 hr, 4 ug/ml Polybrene) and after 48 hr selected with 600 ug/ml G418 (Life Technologies, Inc., Gaithersburg, Md., U.S.A.). To assay for receptor activity, intracellular calcium concentration was measured in confluent cells on coverslips by fura-2 fluorescence using microspectrofluorimetry as previously described (S. Mason et al., Br. J. Pharmacol. 103, 1649 (1991)). Measurement of cell inositol phosphate formation was as described by H. Brown et al., Mol. Pharmacol. 40, 648 (1991), in accordance with known techniques.
A retrovirus expression system was employed to study the cloned CF/T43 HP2U cDNA in 1321N1 human astrocytoma cells. The effect of extracellular nuceotides on intracellular calcium, as measured by fura-2 fluorescence, was assessed in CF/T43 cells, uninfected 1321N1 cells, and 1321N1 cells infected with retroviral vector containing either the cloned HP2U or no insert (LSN).

Assay [7] concerns the target T2, histidine-tagged P2U receptor (P2HIS). The experiment in a line: PIP2 in K562 cells stably expressing P2HIS. The class given is cell-based, murine. As for the experimental part: Construction and Purification of the Histidine-tagged P2U Receptor (P2HIS). To produce P2HIS, 70 pmoles of the primers CGCACCATTGCCTTGGTAC (SEQ ID NO:3)(which contains a BstXI site) and […] (SEQ ID NO:4) (which contains an EcoRV site, stop codon, and the hexahistidine coding sequence) were incubated with 50 ng of pP2R, 20 nmoles of each dNTP, 1X reaction buffer (20 mM Tris-HCl, pH 8.2, 10 mM KCl, 6 mM (NH4)2 SO4, 1.5 mM MgCl2, and 0.1% Triton X-100), and H2 O to bring the reaction mixture to a 100 μl volume. […] The reaction mixture was overlayed with 50 μl of mineral oil and subjected to 30 PCR cycles (95° C. for 1.5 min, 55° C. for 1.5 min, and 72° C. for 2 min). The PCR product, a single 400 bp band, was subcloned into the unique BstXI-EcoRV restriction site of pP2R to generate pP2HIS. K562 cells with stable P2HIS expression were produced by subcloning the HindIII-NotI restriction fragment of pP2HIS encoding the histidine-taged P2U receptor cDNA into pRC/CMV and transfecting K562 cells as described for pP2R1. The composition of pP2HIS was verified by DNA sequence analysis.

Molecules are shown by their SMILES. Like-named read-outs stand apart in the source and are kept apart here. Some results are limits rather than exact numbers.

T1 sequence (P35383 whole entry, the tested form may be a part): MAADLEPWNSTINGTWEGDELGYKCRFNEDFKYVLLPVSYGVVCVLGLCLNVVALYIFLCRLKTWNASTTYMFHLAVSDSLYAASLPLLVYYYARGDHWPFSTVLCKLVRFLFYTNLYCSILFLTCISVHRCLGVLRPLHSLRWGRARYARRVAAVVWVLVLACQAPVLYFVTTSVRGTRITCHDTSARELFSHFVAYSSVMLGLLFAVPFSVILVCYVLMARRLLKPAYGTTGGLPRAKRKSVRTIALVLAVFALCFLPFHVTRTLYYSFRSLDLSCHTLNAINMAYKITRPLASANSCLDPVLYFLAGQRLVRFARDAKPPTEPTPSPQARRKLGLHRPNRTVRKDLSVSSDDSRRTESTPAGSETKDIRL
T2 sequence (P35383 whole entry): as the sequence (P35383 whole entry, the tested form may be a part) above

In the case of `Nc1ncnc2c1ncn2[C@@H]1O[C@H](COP(=O)(O)OP(=O)(O)OP(=O)(O)O)[C@@H](O)[C@H]1O` [ATP], the “reduction of intracellular levels of phosphatidylinositol 4,5-bisphosphate (PIP2)” value in assay [1] is recorded as “approximately 10%”. Further, in assay [2], the “[Ca^2+ ]i in K562 cells stably expressing P2HIS” value was “increase in [Ca^2+ ]i”. In assay [3], the “elevation of [Ca^2+ ]i in untransfected or vector-transfected K562 cells” value was “Neither ATP nor UTP elevated [Ca^2+ ]^i”. Moreover, in assay [4], the EC50 is approximately 1.4 µM, the “increase in [Ca^2+ ]i” value is reported as “two-fold increase”, the “time of return of [Ca^2+ ]i to the basal level” value was not above 1 min and the “time to maximal [Ca^2+ ]i after nucleotide addition” value is given as not above 5 s. Further, the “effect of depletion of extracellular Ca^2+ by EGTA on nucleotide-mediated increases in [Ca^2+ ]i” value in assay [4] is “not affected”. In addition, in assay [5], the EC50 is approximately 1 µM and the “activation of the cloned murine receptor” value is recorded as “activated”. Moreover, the “[Ca^2+ ]i response of uninfected or LSN-infected 1321N1 cells” value in assay [6] was “the same result observed with UTP”. Further, the “PIP2 in K562 cells stably expressing P2HIS” value in assay [7] was “decrease in PIP2”.

As for `O=c1ccn([C@@H]2O[C@H](COP(=O)(O)OP(=O)(O)OP(=O)(O)O)[C@@H](O)[C@H]2O)c(=O)[nH]1` [UTP], the “reduction of intracellular levels of phosphatidylinositol 4,5-bisphosphate (PIP2)” value in assay [1] is reported as “approximately 10%”. In assay [2], the “[Ca^2+ ]i in K562 cells stably expressing P2HIS” value is “increase in [Ca^2+ ]i”. Also, in assay [3], the “elevation of [Ca^2+ ]i in untransfected or vector-transfected K562 cells” value is “Neither ATP nor UTP elevated [Ca^2+ ]^i”. Also, in assay [4], the EC50 was approximately 0.8 µM, the “increase in [Ca^2+ ]i” value is listed as “two-fold increase”, the “time of return of [Ca^2+ ]i to the basal level” value was not above 1 min and the “time to maximal [Ca^2+ ]i after nucleotide addition” value is not above 5 s. In addition, the “effect of depletion of extracellular Ca^2+ by EGTA on nucleotide-mediated increases in [Ca^2+ ]i” value in assay [4] is listed as “not affected”. Further, in assay [5], the EC50 was approximately 1 µM and the “activation of the cloned murine receptor” value is “activated”. Further, the “[Ca^2+ ]i response of uninfected or LSN-infected 1321N1 cells” value in assay [6] was “no effect”. In addition, in assay [7], the “PIP2 in K562 cells stably expressing P2HIS” value is “decrease in PIP2”.

What is called EC50 is the concentration giving half of the maximal effect.
